Source: patent US20200254014A1, “ANTIMICROBIAL COMPOSITIONS AND METHODS FOR THEIR PRODUCTION” (National University of Ireland, Galway, priority 2013, published 2020)

Key:
E. coli ATCC 25922 [1] = format: cell-based
Procedure: In an attempt to induce a tolerance to an antimicrobial, the micro-broth dilution method was utilised, with repeated passaging, with E. coli ATCC 25922 and a number of antibiotics, as well as the composition of the invention containing hydrogen peroxide and potassium iodide. […] Doubling dilutions of antimicrobial compositions were made using a 96 well plate. The well contents were inoculated with 10^4 cfu ml^−1 E. coli ATCC 25922 and allowed to incubate.

E. coli ATCC 25922 [2] = experiment: MIC of iodine based antimicrobials in absence and presence of organic material; format: cell-based
Excerpt: As a comparison, PVP-1 or povidone iodine, used frequently in hospital setting as a topical antiseptic, was used as a source of free iodine (12).

S. aureus BH1CC (MRSA) = conditions: strain isolated from Beaumont hospital; cited from earlier work

In the case of `C[C@H]1COc2c(N3CCN(C)CC3)c(F)cc3c(=O)c(C(=O)O)cn1c23` [levofloxacin], the “increase in tolerance versus pre-passaging” value (E. coli ATCC 25922 [1]; after 10 passages) is reported as 8 times.
For `OO` [Example H2O2, hydrogen peroxide], the “MIC” value (E. coli ATCC 25922 [2]; broth) was 20 to 40 µg/mL.
In the case of `Cc1onc(-c2ccccc2)c1C(=O)N[C@@H]1C(=O)N2[C@@H]1SC(C)(C)[C@@H]2C(=O)O` [oxacillin], the “oxacillin MIC” value (S. aureus BH1CC (MRSA)) is listed as > 256 µg/mL.
In the case of polymyxin B, the “resistance of the organism after passaging in presence of the antibiotic” value (E. coli ATCC 25922 [1]; after only 8 passages) is reported as “completely resistant”.
In the case of “polyvinylpyrrilidone, PVP-I, also known as povidone-iodine”, the “MIC” value (E. coli ATCC 25922 [2]; in LB) is reported as >250 µg/mL, the “MIC” value (E. coli ATCC 25922 [2]; milk) is reported as >250 µg/mL and the “MIC” value (E. coli ATCC 25922 [2]; saline) is reported as 1 to 2 µg/mL.
